Some test systems named below: M19-MEL; LXFL 529; RXF 631; DLD-1; DMS-273; HOP-18; DMS-114; KM-20L2; MDA-N.
What all share (assay): DTP human tumour cell line panel, 48 h

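Cultured in 96-well plates, cells were exposed to test compound for 48 hours across five concentrations. The concentration for 50% growth inhibition is given as GI50.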 Active and inactive are the calls of the source. No stated cut-off is given here; in the data, active = GI50 up to about 1.1 µM and inactive = higher.

Consider `COC12OCCN(C)C1=CC(=O)C1N=NCC12` (stereo not drawn), for which the GI50 in the experiment with M19-MEL, with LXFL 529, in the experiment on RXF 631, in the experiment with DLD-1, with DMS-273 and in the experiment on HOP-18 was > 100 µM (inactive) each time. Besides, the GI50 with DMS-114 is > 100 µM (inactive).
Consider `Cc1cc(NS(=O)(=O)c2ccc(Nc3c4ccccc4nc4c(C(=O)Nc5ccc(S(=O)(=O)N=C(N)N)cc5)cccc34)cc2)no1`, for which the GI50 in the experiment on M19-MEL, with KM-20L2, with LXFL 529, in the experiment on RXF 631, with DLD-1 and in the experiment on DMS-273 was > 100 µM (inactive) each time. For the same compound, the GI50 with HOP-18 and in the experiment on DMS-114 was > 100 µM (inactive) throughout.
In the case of `C1CSC(=[N+]2CC[N+](=C3SCCS3)CC2)S1`, the GI50 in the experiment with M19-MEL, with KM-20L2, in the experiment with LXFL 529, in the experiment with RXF 631, in the experiment with DLD-1 and in the experiment with DMS-273 was > 100 µM (inactive) throughout. Further, the GI50 with HOP-18 and in the experiment on DMS-114 was > 100 µM (inactive) throughout.
Take `NC(=O)C(=Cc1ccc(C(O)P(=O)(O)O)cc1)C(N)=O` (stereo not drawn): the GI50 in the experiment with M19-MEL, with KM-20L2, in the experiment with LXFL 529, in the experiment on RXF 631, with DLD-1 and in the experiment with DMS-273 was > 100 µM (inactive) throughout. For the same compound, the GI50 in the experiment with HOP-18 and with DMS-114 was > 100 µM (inactive) in each case.
Consider `COc1cc(C(=O)c2cocc2C(=O)c2ccc3c(c2)OCO3)cc(OC)c1OC`, for which the GI50 in the experiment with M19-MEL was 2.96 µM (inactive); in the experiment with KM-20L2, 0.596 µM (active); with LXFL 529, 0.871 µM (active); with MDA-N, 46.8 nM (active); in the experiment on DLD-1, 0.867 µM (active); with DMS-273, 0.729 µM (active). For the same compound, the values for the GI50 in the experiment with HOP-18 and with DMS-114 were > 51.1 µM (inactive) and 0.753 µM (active), respectively.
Turning to `COc1ccc2c3c([nH]c(=O)c2c1C(=O)O)-c1ccccc1CC3`, the GI50 in the experiment on KM-20L2, in the experiment with LXFL 529, in the experiment with RXF 631, in the experiment on DLD-1, in the experiment on DMS-273 and in the experiment with DMS-114 was > 100 µM (inactive) in each case.
For `COc1ccc(CCc2cc(OC)c(OC)c(OC)c2)cc1`, the 50% growth inhibitory concentration (GI50) in the experiment with M19-MEL is < 0.0226 µM (active); in the experiment with KM-20L2 it was 0.0128 µM (active); in the experiment on LXFL 529, 0.0552 µM (active); in the experiment with RXF 631, < 0.0166 µM (active); in the experiment with MDA-N, < 10 nM (active); in the experiment with DLD-1, < 0.01 µM (active). In addition, the results for the GI50 in the experiment with DMS-273, with HOP-18 and in the experiment on DMS-114 were < 0.01 µM (active), > 100 µM (inactive) and 0.0248 µM (active), respectively.
For `COc1ccccc1NC(=O)C1=C(C)NC(C)=C(C(=O)Nc2ccccc2OC)C1c1cccc2c1OCO2`, the GI50 was > 100 µM (inactive) with M19-MEL; > 100 µM (inactive) in the experiment on KM-20L2; 69.2 µM (inactive) in the experiment on LXFL 529; > 100 µM (inactive) in the experiment with RXF 631; > 100 µM (inactive) with DLD-1; > 100 µM (inactive) in the experiment with DMS-273. In addition, the GI50 with HOP-18 is > 100 µM (inactive); in the experiment on DMS-114, 77.3 µM (inactive).
Turning to `C[C@@H](C1CCC2C3C(=CC(=O)[C@@]21C)[C@H](C)[C@]1(CCC(=O)O1)C1OC31)[C@H]1C[C@]2(C)O[C@@](C)(O1)OC2(C)C` (stereo partly drawn), the GI50 in the experiment on M19-MEL, in the experiment with KM-20L2, in the experiment on LXFL 529, in the experiment on RXF 631, in the experiment on DLD-1 and with DMS-273 was > 100 µM (inactive) each time. Moreover, the GI50 in the experiment on HOP-18 and in the experiment on DMS-114 was > 100 µM (inactive) in each case.
As to `CC(C)c1ccc(/C=C/c2cc(C(=O)NNC(=O)NC3CCCCC3)nc(S)n2)cc1`, the GI50 with M19-MEL, in the experiment on KM-20L2, in the experiment with LXFL 529, in the experiment on RXF 631, with DLD-1 and in the experiment with DMS-273 was > 100 µM (inactive) in each case. Further, the GI50 with HOP-18 and in the experiment with DMS-114 was > 100 µM (inactive) throughout.
As to `Cc1ccc(S(=O)(=O)O/N=C2\CCC\C2=C/c2ccccc2)cc1`, the GI50 in the experiment with M19-MEL was 20.1 µM (inactive); in the experiment with KM-20L2 it was 22.1 µM (inactive); in the experiment on LXFL 529, 16.6 µM (inactive); in the experiment with RXF 631 it was 16.9 µM (inactive); in the experiment with DLD-1 it was 19.1 µM (inactive); with DMS-273 it was 32.8 µM (inactive). Further, the GI50 in the experiment with HOP-18 is 20.3 µM (inactive).
Take `C[n+]1cn(CC(=O)c2ccccc2)c(C(N)=O)c1N`: the GI50 in the experiment on M19-MEL was 25.2 µM (inactive); in the experiment on KM-20L2, > 100 µM (inactive); in the experiment with LXFL 529, 61.7 µM (inactive); in the experiment with RXF 631 it was > 100 µM (inactive); with DLD-1 it was > 100 µM (inactive); with DMS-273, > 100 µM (inactive). For the same compound, the figures for the GI50 in the experiment on HOP-18 and in the experiment with DMS-114 were > 100 µM (inactive) and 25 µM (inactive), respectively.
On to `OCC(O)C(O)c1nn(-c2ccccc2)c2nc3cc(Cl)c(Cl)cc3nc12` (stereo not drawn), for which the GI50 is 28.8 µM (inactive) in the experiment with M19-MEL; 26.7 µM (inactive) in the experiment with KM-20L2; 20.6 µM (inactive) in the experiment on LXFL 529; 18.9 µM (inactive) in the experiment with RXF 631; 26.1 µM (inactive) with DLD-1; 15.7 µM (inactive) in the experiment with DMS-273. Besides, the GI50 was 26.7 µM (inactive) in the experiment on HOP-18 and 21 µM (inactive) in the experiment with DMS-114.
In the case of `CC(CC(=O)Nc1ccc(NC(=O)CC(C)/N=N\C(N)=S)cc1)/N=N\C(N)=S` (stereo not drawn), the GI50 in the experiment on M19-MEL is > 100 µM (inactive); in the experiment with KM-20L2, > 100 µM (inactive); with LXFL 529, > 100 µM (inactive); in the experiment on RXF 631, > 100 µM (inactive); in the experiment with DLD-1, > 100 µM (inactive); in the experiment with DMS-273 it was 36.9 µM (inactive). Besides, the GI50 was > 100 µM (inactive) in the experiment with HOP-18 and 53.7 µM (inactive) in the experiment with DMS-114.
Turning to `Cc1ccccc1C(=O)c1cc(O)ccc1O`, the GI50 in the experiment on M19-MEL was > 100 µM (inactive); with KM-20L2, 32.6 µM (inactive); in the experiment with LXFL 529 it was > 100 µM (inactive); with RXF 631 it was > 100 µM (inactive); with DLD-1, 55.7 µM (inactive); with DMS-273 it was 42.3 µM (inactive). The figures for the GI50 with HOP-18 and with DMS-114 were > 100 µM (inactive) and 45.7 µM (inactive), respectively.
Turning to `Nc1c(Br)c(=O)[nH]c(=O)n1COCCO`, the GI50 in the experiment with M19-MEL, in the experiment with LXFL 529, with RXF 631, with DLD-1, with DMS-273 and with HOP-18 was > 100 µM (inactive) throughout. For the same compound, the GI50 with DMS-114 is > 100 µM (inactive).
As to `O=C(C#Cc1ccccc1)N1c2ccccc2CC1c1c[nH]c2ccccc12` (stereo not drawn), the GI50 in the experiment with M19-MEL is 16.1 µM (inactive); in the experiment with KM-20L2 it was 21.9 µM (inactive); in the experiment with LXFL 529, 12.3 µM (inactive); with RXF 631, 14.3 µM (inactive); in the experiment with DLD-1, 2.07 µM (inactive); in the experiment with DMS-273, 12.7 µM (inactive). The GI50 in the experiment with DMS-114 is 12.7 µM (inactive).
As to `O=C1Nc2cccc3ncn(c23)C2=C1CCCC2`, the GI50 is > 100 µM (inactive) in the experiment on M19-MEL; > 100 µM (inactive) in the experiment with KM-20L2; > 100 µM (inactive) with LXFL 529; > 100 µM (inactive) with DLD-1; > 100 µM (inactive) with DMS-273; 4.98 µM (inactive) in the experiment on HOP-18. Besides, the GI50 in the experiment with DMS-114 is > 100 µM (inactive).

These data come from ChEMBL document CHEMBL1201862, “PubChem BioAssay data set” (2004).
